# Experimental data published in patent US20030086987A1, “Salvianolic acid B” (priority 2001, published 2003).
# Assays:
# [1] = test system: New Zealand White rabbits; experiment: Intima/media area ratio in cholesterol-fed rabbits after femoral artery denudation; format: in vivo; details: 2% cholesterol diet, six weeks, probucol 1.5 g/day, salvianolic acid B 375 mg/day; for ratio of the intima area to the media area, thoracic aorta section: CT group 0.1; for ratio of the intima area to the media area, aortic arch section: CT group 0.22; for ratio of the intima area to the media area, abdominal aorta section: CT group 0.58
# Description: New Zealand White rabbits were randomly divided into three groups. […] Another group was fed with the control diet containing 1.5 g/day probucol (P group), and the third group was fed with the control diet containing 375 mg/day salvianolic acid B (Sal B group). After being fed for three weeks, all rabbits underwent a femoral artery denudation. After the operation, the diet fed to each group was maintained for anther three weeks. […] Thin sections (5 μm thick) were stained with Mayer's hematoxylin-eosin solution. […] See, e.g., Gordon et al. (1992) Proc […] USA 89: 11312-11316. In the CT group, the ratio of the intima area to the media area of the aortic arch section was 0.22 (±0.04).
# [2] = test system: Human aortic smooth muscle cells (HASMCs); experiment: Rescue of oxLDL induced cell death, MTT assay; format: cell-based; details: then 40 μg/mL oxLDL for 24 hr, oxLDL alone 23.5%
# Description: Human aortic smooth muscle cells (HASMCs, Cascade Biologics, Inc. Portland, Oreg.) were cultured in Medium 231 (Cascade Biologics, Inc.), supplemented with 5% smooth muscle growth serum (SMGS), 100 untis/mL penicillin, 100 μg/mL streptomycin, 1.25 μ/mL Fungizone (amphotericin B) at 37° C. in 5% CO2 saturated humidity atmosphere. The medium was changed every 4 days, and cells were detached by treatment with 0.05% trypsin, 0.02% EDTA solutions. […] Before each experiment, the medium was removed, and cells were washed and then cultured in serum-free medium containing the supplements indicated above but without SMGS. […] Then, 40 μg/mL oxLDL was added to the incubated medium for another 24 hr. The cytotoxic effect can be determined using the 3-(4,5-dimethylthiazol-2-yl)-2,5-diphenyltetrazolium bromide (MTT) assay method described in Boyd (In Principle of Practice of Oncology, […]., and Rosenberg, S. A. (Eds) Vol. 3, PPO Update, No. 10, 1989).
# [3] = test system: apoE (−) mice; experiment: Atherosclerotic area in the apoE (−) mice; format: in vivo; details: 0.15% cholesterol diet with 0.25% salvianolic acid B or 2% SAGE, 113 days
# Description: 25-week apoE (−) mice from Jackson Laboratory were randomly divided into three groups. Animals in the control group (CT group) were fed with a diet containing 0.15% cholesterol (w/w) (a control diet). Second group (SB group) was fed with the control diet containing 0.25% salvianolic acid B (w/w); and third group (SAGE group) was fed with the control diet containing 2% SAGE (w/w). The feeding period was 113 days. SAGE was prepared as follows:
# Salvia miltiorrhiza extract was obtained from extracts of the sliced and ground roots of Salvia miltiorrhiza by using an aqueous ethanol solution (water: ethanol =4:1, v/v). The weight to volume ration of Salvia miltiorrhiza to extraction solvent was 1:10 (w/v).
# Angelica sinensis extract was obtained from ethanolic extracts (1:10, w/v).
# Glycyrrhizae radix (Glycyrrhiza uralensis) extract was obtained from ethanolic extracts (1:10, w/v).
# The weight ratio of Salvia miltiorrhiza extract, Angelica sinensis extract, and Glycyrrhiza uralensis extract was 2:1:1, respectively, based on the dried weights of the raw herbs used.
# [4] = test system: IL-1β; experiment: Inhibition of oxLDL induced IL-1β production in HASMCs, sandwich ELISA; format: cell-based, Human; details: 1, 2.5 and 10 μg/mL for 24 hr, then 20 μg/mL oxLDL for 24 hr
# Description: (§1) Human aortic smooth muscle cells (HASMCs, Cascade Biologics, Inc. Portland, Oreg.) were cultured in Medium 231 (Cascade Biologics, Inc.), supplemented with 5% smooth muscle growth serum (SMGS), 100 untis/mL penicillin, 100 μg/mL streptomycin, 1.25 μ/mL Fungizone (amphotericin B) at 37° C. in 5% CO2 saturated humidity atmosphere. The medium was changed every 4 days, and cells were detached by treatment with 0.05% trypsin, 0.02% EDTA solutions. […] Before each experiment, the medium was removed, and cells were washed and then cultured in serum-free medium containing the supplements indicated above but without SMGS. […] IL-1 production was determined with a sandwich ELISA using anti-IL-1 antibodies (e.g., IL-1β and IL-1ra ELISA kits from R&D Systems and Endogen, Inc. respectively).
# [5] = test system: IL-1ra; experiment: Inhibition of oxLDL induced IL-1ra production in HASMCs, sandwich ELISA; format: cell-based, Human; details: 1, 2.5 and 10 μg/mL for 24 hr, then 20 μg/mL oxLDL for 24 hr
# Description: as §1
# [6] = test system: caspase-3; experiment: Inhibition of oxLDL induced caspase-3 activation, Western blot in HASMCs; format: cell-based, Human; details: 1 or 10 μg/mL for 24 hr, then 20 μg/mL oxLDL for 24 hr
# Description: Human aortic smooth muscle cells (HASMCs, Cascade Biologics, Inc. Portland, Oreg.) were cultured in Medium 231 (Cascade Biologics, Inc.), supplemented with 5% smooth muscle growth serum (SMGS), 100 untis/mL penicillin, 100 μg/mL streptomycin, 1.25 μ/mL Fungizone (amphotericin B) at 37° C. in 5% CO2 saturated humidity atmosphere. The medium was changed every 4 days, and cells were detached by treatment with 0.05% trypsin, 0.02% EDTA solutions. […] Before each experiment, the medium was removed, and cells were washed and then cultured in serum-free medium containing the supplements indicated above but without SMGS. […] The sample solution was heated at 100° C. for 5 min, cooled down to room temperature, and subjected to 12% SDS-polyacrylamide gel electrophoresis. Then, proteins were transferred to PVDF membranes, blocked with 5% nonfat milk in Tris-buffered saline-Tween 20 (0.1%) at room temperature for 2 hr, and incubated overnight at 4° C. with […] anti-caspase-3 antibody (dilution 1:1000). The membranes were washed three times in Tris-buffered saline-Tween 20, and antibody reactions were detected using horseradish peroxidase-conjugated goat anti-rabbit IgG (0.2 μg/mL) and LumiGLO chemiluminescent detection reagents (Bradford (1976) Analytical Biochem 72: 248-254). Activated caspase-3 (17 kD) was detected in HASMCs after oxLDL treatment.
Structure (SMILES),"ratio of the intima area to the media area, thoracic aorta section [1]","ratio of the intima area to the media area, aortic arch section [1]","ratio of the intima area to the media area, abdominal aorta section [1]",cell viability of the HASMCs ([2]; 1 μg/mL for 24 hr),cell viability of the HASMCs ([2]; 1.25 μg/mL for 24 hr),cell viability of the HASMCs ([2]; 10 μg/mL for 24 hr),cell viability of the HASMCs ([2]; 20 μg/mL for 24 hr),Inhibition (%) of atherosclerosis compared with control group [3] [%],Intima area ([3]; mean ± S.D.),Media area ([3]; mean ± S.D.),"Intima/Media (ratio) ([3]; mean ± S.D., CT 0.770)",oxLDL induced IL-1β production [4],oxLDL induced IL-1ra production [5],activated caspase-3 (17 kD) after oxLDL treatment [6]
"CC(C)(Sc1cc(C(C)(C)C)c(O)c(C(C)(C)C)c1)Sc1cc(C(C)(C)C)c(O)c(C(C)(C)C)c1 [probucol, reference compound]",about 0.03,about 0.1,about 0.33,–,–,–,–,–,–,–,–,–,–,–
O=C(/C=C/c1ccc(O)c2c1[C@H](C(=O)O[C@H](Cc1ccc(O)c(O)c1)C(=O)O)[C@@H](c1ccc(O)c(O)c1)O2)O[C@H](Cc1ccc(O)c(O)c1)C(=O)O [salvianolic acid B],about 0.02,about 0.07,about 0.26,68.3% (±5.3%),57.5% (±14.4%),57.6% (±18.7%),38.3% (±18.8%),83,"1,563 ± 2,504 10^3 μm^2","9,763 ± 2,239 10^3 μm^2",0.128 ± 0.170,inhibit,inhibit,no activated caspase-3 was observed
